Laboratory results reported in the NIST ThermoML archive (doi:10.1021/acs.jced.5b00737).
± gives the expanded uncertainty stated by the source.

Settings: 298.15 K; Liquid; Gas chromatography

Structure (SMILES) | vapor or sublimation pressure
c1ccc(C2(N3CCCCC3)CCCCC2)cc1 [1-(1-phenylcyclohexyl)piperidine] | 3e-05 ± 1.2e-05 kPa
CC(Cc1ccc(C(C)(C)C)cc1)CN1CCCCC1 (configuration not stated) [1-(3-(4-(tert-butyl)phenyl)-2-methylpropyl)piperidine] | 1.6e-05 ± 8e-06 kPa
